Measured values taken from patent US20030170643A1, “Regulation of apoB treatment and drug screening for cardiovascular and metabolic disorders or syndromes” (priority 1999, published 2003).

Assays:
Type in all cases: cell-based
rat hepatoma cells [1] = assay: Pulse-chase recovery of [35S]-apoB100 (apoB100 degradation) in rat hepatoma cells; conditions: for effect on DHA-stimulated apoB100 degradation: rat hepatoma cells or primary hepatocytes, co-treatment with DHA/BSA
Procedure: (§1) FIG. 13 illustrates that either an iron chelator (DFX) or lipid antioxidants block DHA-stimulated apoB degradation and reactive oxygen species (ROS) production. Rat hepatoma cells were plated in culture wells and pre-incubated in media containing either DHA or DHA with one of the indicated compounds. Radiolabeled methionine/cysteine was added to the culture media for 15 minutes, after which time, the culture media were replaced by fresh media identical in composition except that radiolabeled methionine/cysteine were replaced by unlabeled methionone/cysteine. The recovery of labeled apoB100 ([^35S]-apoB100) from the media and cell lysate was determined at the indicated time points (with time 0 being the point when the fresh media were applied to the cells) by immunoprecipitating apoB species with a rabbit polyclonal antibody to rat apoB, resuspending the immunoprecipitates, combining aliquots from cell lysate and media samples from each well, resolving the protein contents of the combined immunoprecipitates by SDS-polyacrylamide gel electrophoresis (SDS-PAGE), and exposing the resultant gels to X-ray film in order to visualize the labeled apoB bands. In panel A are shown representative signals for radiolabeled apoB100 in each of the treatment conditions. […] For each treatment, there were at least 2 wells/treatment for each time point and the entire experiment repeated. The signal intensities of the apoB100 bands were quantified by densitometry and the mean relative recoveries (the % of the 15 minute, or initial, value still remaining at 120 minutes) ±SEM are shown in panel B. Note that the visual impressions observable in panel A are confirmed by the quantitative analysis; i.e., there is a substantial increase in labeled apoB100 recovery with any of the co-treatments. In panel C, the ROS content of the cell lysates at the end of the experiment was measured by the standard TBARS assay (Stocks et al., 1974, Clin Sci Mol Med 47,215-222). Note that compared to control (BSA), DHA induced a large increase in TBARS, as expected because of its high content on unsaturated bonds.
FIG. 14 illustrates that DHA, but not saturated MA, induces apoB100 degradation in rat hepatoma cells. An experiment similar to the one described in FIG. 13 was performed, with the following changes: A) The immunoprecipitates from cell lysate and media samples were not combined, but separately analyzed. B) In addition to the 15 and 120 minute time points, apoB recovery was determined at 30 minutes. C) In addition to DHA, the effects of the fatty acid myristic (MA) were also tested because it has no unsaturated bonds and should not give rise to ROS.
FIG. 15 illustrates that AA stimulates apoB100 degradation and increases ROS. […] Note in the upper panel that the combined recovery (from two separate wells/time point) of radiolabeled apoB100 decreased from 15 to 120 minutes, indicating significant apoB100 degradation had occurred in the presence of AA. […] In addition to being a source of ROS, AA can also be converted by cyclooxygenase (COX) to bioactive prostaglandin compounds. We therefore repeated the experiment with AA but with co-treatment by the COX inhibitor aspirin.
To further explore the underlying mechanisms, rat hepatoma cells or primary hepatocytes were incubated with the Ω-3 fatty acid DHA complexed to BSA, while blocking candidate cellular mediators. […] There was, however, strong evidence against a role for calcium. Chelation of intracellular Ca^++ with BAPTA-AM, pharmacologic blockage of Ca^++ channels, depletion of the ER-calcium pool, and increasing Ca++ influx with an ionophore each had no effect. Because EGTA also chelates Fe^+++, and DHA is subject to Fe^+++-dependent peroxidation, the role of this lipid modification was examined. As shown in FIG. 13A and 13B, Desferroxamine (DFX), a chelator of Fe^+++, the antioxidant vitamin E (Vit E), and the synthetic antioxidant BHT, each inhibited DHA-stimulated apoB100 degradation by ˜60%.

rat hepatoma cells [2] = assay: TBARS assay of ROS in cell lysates of rat hepatoma cells; conditions: fatty acid alone
Procedure: as §1, with “bonds. […] FIG. 15 illustrates that AA stimulates apoB100 degradation and increases ROS. […] Note in the upper panel that the combined recovery (from two separate wells/time point) of radiolabeled apoB100 decreased from 15 to 120 minutes, indicating significant apoB100 degradation had occurred in the presence of AA. […] In addition to being a source of ROS, AA can also be converted by cyclooxygenase (COX) to bioactive prostaglandin compounds. We therefore repeated the experiment with AA but with co-treatment by the COX inhibitor aspirin.” for “bonds.”

rat primary hepatocytes = assay: Secretion of newly synthesized ([35S]methionine-labeled) VLDL-apoproteins by rat primary hepatocytes incubated with fatty acid/BSA complexes; conditions: fatty acid/BSA complexes (0.8 mM FA), VLDL fraction
Procedure: Cells were plated at a density of 2×10^6 cells/ml on 60-mm culture dishes (previously coated with poly-D-lysine) in modified M199 medium (M199, 1% fetal bovine serum [FBS], 1 mM nicotinamide, 0.1 nM insulin, 3 mg/ml choline, 1.1% L-glutamine, 1% BSA). After a four-hour attachment period, the medium was changed (modified M199 identical to the above except BSA was omitted and the concentration of FBS was raised to 10%). The next morning, cells were washed in serum-free medium three times, the experimental media added, and the cells incubated at 37° C. for 4-6 hours. The experimental medium consisted of serum-free RPMI containing the appropriate isotopes (see below) and fatty acids (FA) present at a final concentration of 0.8 mM complexed to BSA (FA:BSA molar ratio=5:1). The fatty acids used were oleic (OA), EPA, and DHA. Control medium was identical, except that BSA (0.16 mM) without fatty acids was present. For metabolic labeling of proteins, [^35S]methionine (70 uCi/ml) was included in the experimental media.
Following the 4-6 hour incubation period, the cell monolayer was washed, then solubilized in 0.1 M NaOH, and the cell protein determined by the Lowry method (Lowry, O. H., Rosebrough, N. J., Farr, A. L., and Randall, R. J. (1951) J Biol Chem 193, 265-75). Each 60 mm dish contained approximately 1-1.5 mg of cell protein. The secreted apoproteins were isolated from the medium either by ultracentrifugation or immunoprecipitation. To isolate the d<1.006 (VLDL) and 1.006<d<1.063 (IDL and LDL) g/ml density classes by centrifugation, sequential 20 hour runs at 48,000 rpm in a 50 Ti Beckman rotor at 4° C. were performed. After the first run at d=1.006, the upper VLDL layer was harvested and the density of the infranatant adjusted to 1.066 g/ml with solid KBr. After being overlaid with a KBr solution of density 1.063, the adjusted infranatant was re-centrifuged as before to isolate the IDL and LDL fractions. In some experiments, the HDL fraction (1.063<d<1.21) was isolated by sequential density centrifugation. Lipoprotein fractions were then dialyzed against 0.9% NaCl containing 10 mM unlabeled methionine, 0.2 mM PMSF, and 2 mM EDTA. Dialyzed lipoproteins were delipidated using 9 volumes of 100% isopropanol. Apoproteins were then collected by centrifugation in a Sorval HB-4 rotor at 10,000 rpm and 4° C. for 20 min, and dissolved in buffer (0.01 M phosphate, pH 7,1 % SDS, 10% glycerol), in preparation for electrophoresis.
To immunoprecipitate apoB or apoE from unfractionated conditioned medium, monospecific rabbit antiserum to rat apoB or apoE was used. Briefly, an aliquot of the medium was mixed with an equal volume of diluted antiserum (1:100 in PBS and 1% BSA) and incubated overnight at 4° C. Staph A was added in the form of immunoprecipitin, and the resultant precipitate containing the immune complexes was washed extensively, the staph A cells removed, and the isolated apoprotein dissolved in gel sample buffer (0.0625M tris/Cl, pH 6.8, 20% glycerol, 2% SDS). Electrophoretic separation of apoVLDL, apoIDL/LDL, and immunoprecipitates was accomplished using 3.5% acrylamide-18% glycerol gels as described (Maguire, G. F., Lee, M., and Connelly, P. W. (1989) J Lipid Res 30, 757-61). An aliquot of each sample was taken for scintillation counting, so that total radioactivity applied to each lane could be determined. Also, protein size standards were included in each gel.
After electrophoresis, the gels were stained, fixed, soaked in Enhance fluor solution, and dried following protocols supplied by the manufacturer. Dried gels were then exposed to X-ray film at −70° C. and signals on the resulting fluorograms were typically quantified by densitometry or phosphorimaging. Using the total radioactivity applied to each lane of the gel and the relative signal intensity of each band in that lane, the radioactivity associated with each apoprotein species was calculated. […]

Rat McA hepatoma cells = assay: Proteasome inhibition and apoB degradation in rat McA hepatoma cells
Procedure: FIG. 8 illustrates that EPA stimulates apoB degradation even when proteasomes are inhibited. Panel A: Rat McA hepatoma cells were incubated at 37° C. for 4 hr in [^35S]methionine-containing medium supplemented with either BSA (C) or EPA/BSA complexes (EPA) in the absence (EPA) or presence (EPA+LAC) of the proteasome inhibitor, lactacystin. Samples of cell lysates and conditioned media were subjected to immunoprecipitation analysis with anti-apoB antiserum, followed by SDS-PAGE and fluorography. In three separate experiments, the effect of lactacystin on EPA-induced degradation averaged less than 20%. Panel B: Rat McA hepatoma cells were incubated at 37° C. for 4 hr in [^355]methionine-containing medium supplemented with either BSA (Control) or BSA and lactacystin (LAC). After immunoprecipitation/SDS-PAGE analysis of the cell lysate and media samples, the resulting fluorograms were analyzed by phosphorimager and the recovery of total (cell+medium) apoB100 was quantified. The results shown (mean total recovery relative to control, ±SE) are based on 8 independent determinations. * indicates P<0.001, LAC vs. control.
To determine whether the proteasome mediated Ω-3 fatty acid-induced apoB degradation, rat hepatoma cells were incubated at 37° C. for 4 hr in [^35S]methionine-containing medium supplemented with either BSA or EPA/BSA complexes in the absence or presence of the proteasome inhibitor, lactacystin ([…]; purchased from the laboratory of Dr. E. J. Corey, Harvard University). Samples of cell lysates and conditioned media were subjected to immunoprecipitation analysis with anti-apoB antiserum, followed by SDS-PAGE and fluorography. To determine whether Ω-3 fatty acids targeted apoB to lysosomal degradation, a similar experiment was performed substituting ammonium chloride (40 mM) for lactacystin.

## CCCCC/C=C\C/C=C\C/C=C\C/C=C\CCCC(=O)O [AA, arachidonic acid]
Rat hepatoma cells [1]; AA plus aspirin
  AA-induced apoB100 degradation with co-treatment by the COX inhibitor aspirin: still induced apoB100 degradation
Rat hepatoma cells [1]; rat hepatoma cells, 15 to 120 minutes chase
  apoB100 degradation induced by the fatty acid: stimulates the degradation of apoB
Rat hepatoma cells [2]
  reactive oxygen species (ROS), TBARS assay, fatty acid compared to BSA: increases

## CC(=O)OCOC(=O)CN(CC(=O)OCOC(C)=O)c1ccccc1OCCOc1ccccc1N(CC(=O)OCOC(C)=O)CC(=O)OCOC(C)=O [BAPTA-AM]
Rat hepatoma cells [1]
  effect on DHA-stimulated apoB100 degradation: no effect

## O=C(O)CN(CC(=O)O)c1ccccc1OCCOc1ccccc1N(CC(=O)O)CC(=O)O [BAPTA]
Rat hepatoma cells [1]
  effect on DHA-stimulated apoB100 degradation: blocked

## Cc1cc(C(C)(C)C)c(O)c(C(C)(C)C)c1 [BHT, butylhydroxytoluene]
Rat hepatoma cells [1]; co-treatment with DHA, FIG. 13A and 13B
  inhibition of DHA-stimulated apoB100 degradation: ~60%

## O=C(O)CN(CCOCCOCCN(CC(=O)O)CC(=O)O)CC(=O)O [EGTA]
Rat hepatoma cells [1]
  effect on DHA-stimulated apoB100 degradation: blocked

## CC/C=C\C/C=C\C/C=C\C/C=C\C/C=C\CCCC(=O)O [EPA, eicosapentaenoic acid]
Rat primary hepatocytes
  secretion of newly synthesized VLDL-ApoB48, percentage of secretion observed with BSA alone: 45 ± 3 percentage
  secretion of newly synthesized VLDL-ApoB100, percentage of secretion observed with BSA alone: 25 ± 2 percentage
  secretion of newly synthesized VLDL-ApoE, percentage of secretion observed with BSA alone: 45 ± 1 percentage

## CCCCCCCCCCCCCC(=O)O [MA, myristic acid]
Rat hepatoma cells [2]
  reactive oxygen species (ROS), TBARS assay, fatty acid compared to BSA: does not increase

## CC(=O)Oc1ccccc1C(=O)O [aspirin]
Rat hepatoma cells [1]
  effect on DHA-stimulated apoB100 degradation: no effect

## CC(=O)N[C@@H](CSC(=O)[C@]1([C@@H](O)C(C)C)NC(=O)[C@H](C)[C@@H]1O)C(=O)O [lactacystin]
Rat McA hepatoma cells; FIG. 8 Panel A
  inhibition of EPA-induced apoB degradation: little if any inhibition
Rat McA hepatoma cells; FIG. 8 Panel B, total (cell+medium), P<0.001 vs control
  apoB100 recovery in the absence of Ω-3 fatty acids: increased
Rat McA hepatoma cells; average of three separate experiments, 4 hr
  effect of lactacystin on EPA-induced apoB degradation: less than 20%
